Legend:
Assay type in all cases: subcellular
[1] = biological target: T1, Galanin receptor type 1 (Rattus norvegicus) (UniProt Q62805); assay: (§1) Antagonist activity at galanin -1 receptor in rat brain synaptosomes assessed as galanin-mediated suppression of K+-Krebs-ringer solution-induced [3H]-acetylcholine secretion at 1 uM measured 10 mins post 30 sces superfusing with K+-Krebs-ringer solution by liquid scintillation spectrometric method (reference value: […]%)
T1 sequence (whole entry): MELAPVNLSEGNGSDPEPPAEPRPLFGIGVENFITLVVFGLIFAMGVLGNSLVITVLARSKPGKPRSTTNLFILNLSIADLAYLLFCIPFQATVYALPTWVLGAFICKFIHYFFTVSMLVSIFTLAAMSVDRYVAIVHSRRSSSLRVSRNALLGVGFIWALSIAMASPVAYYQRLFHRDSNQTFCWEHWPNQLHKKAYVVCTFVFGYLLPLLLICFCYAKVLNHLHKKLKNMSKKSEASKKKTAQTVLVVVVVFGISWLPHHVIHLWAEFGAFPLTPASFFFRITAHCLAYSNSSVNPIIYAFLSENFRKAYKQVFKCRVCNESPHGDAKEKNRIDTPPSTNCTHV

[2] = biological target: T1, Galanin receptor type 1 (Rattus norvegicus); assay: Antagonist activity at galanin -1 receptor in rat brain synaptosomes assessed as galanin-mediated suppression of basal [3H]-acetylcholine secretion at 1 uM measured 10 mins post 30 sces superfusing with K+-Krebs-ringer solution by liquid scintillation spectrometric method (reference value: […]%)
[3] = biological target: T1, Galanin receptor type 1 (Rattus norvegicus); assay: Antagonist activity at galanin -1 receptor in rat brain synaptosomes assessed as galanin-mediated suppression of basal [3H]-acetylcholine secretion at 10 uM measured 10 mins post 30 sces superfusing with K+-Krebs-ringer solution by liquid scintillation spectrometric method (reference value: […]%)
[4] = biological target: T1, Galanin receptor type 1 (Rattus norvegicus); assay: as §1, with “at 10” for “at 1”

## O=S1(=O)C=C(c2cccc(F)c2)S(=O)(=O)CCC1
[1]
  inhibition: 23.9%
[2]
  inhibition: 38.9%
[3]
  inhibition: 37%

## O=S1(=O)C=C(c2ccc(I)cc2)S(=O)(=O)CCC1
[1]
  inhibition: 35.2%
[2]
  inhibition: 39.2%
[4]
  inhibition: 22.3%
[3]
  inhibition: 37%

— ChEMBL document CHEMBL3879897, “1,4-dithiin and 1,4-dithiepin-1,1,4,4, tetroxide derivatives useful as antagonists of the human galanin receptor” (2002)
